How the values were obtained:
[1] = molecular target: T1, protein encoded in the VRER gene (Vigna radiata, UniProt Q9SQK0); experiment: Biochemical characteristics of the protein encoded in the VRER gene (substrate reduction with NADPH); conditions: in the presence of NADPH
T1 sequence (Q9SQK0 1-325): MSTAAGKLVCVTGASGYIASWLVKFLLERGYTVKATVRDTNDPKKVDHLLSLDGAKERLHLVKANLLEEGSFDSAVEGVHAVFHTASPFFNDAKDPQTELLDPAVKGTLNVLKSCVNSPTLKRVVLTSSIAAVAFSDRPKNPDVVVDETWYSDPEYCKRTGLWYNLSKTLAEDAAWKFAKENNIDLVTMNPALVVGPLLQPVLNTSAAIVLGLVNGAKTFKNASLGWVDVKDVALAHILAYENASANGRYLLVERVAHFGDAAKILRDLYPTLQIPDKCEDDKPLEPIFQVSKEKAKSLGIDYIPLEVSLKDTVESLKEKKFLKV
Source text: The protein encoded in the VRER gene was characterized biochemically. […] It was also investigated whether this protein was capable of reducing other substrates.

[2] = test system: protoplasts obtained from leaves of vitroplants of Vitis vinifera cv. Cabernet Sauvignon; experiment: Viability of leaf protoplasts cultured with eutypine or eutypinol; format: cell-based; conditions: for Viability after 48 hours: protoplasts 4.5×10^5/ml
Method: (§1) The protoplasts (4.5×10^5/ml) are cultured in the presence of eutypine or eutypinol for 48 hours.

eutypine reductase = experiment: Conversion of eutypine to eutypinol: effect of reductase inhibitors; format: biochemical, grapevine
Source text: The conversion of eutypine to eutypinol is catalyzed by a non-membrane enzyme, which specifically requires NADPH as co-factor. Its activity is reduced by reductase inhibitors such as disulfiram and parahydroxymercuribenzoic acid, confirming its membership of this group of enzymes. It has been called “eutypine reductase”. The reaction scheme is shown below. [drawing 2]

[3] = test system: untransformed (GWT) grapevine cells; experiment: Biotest I: mortality of grapevine cells in suspension with eutypine (erythrosine); format: cell-based, Vitis vinifera cv Gamay; conditions: GWT wildtype
Method: (§2) In the biotest I, the percentage of dead cells was estimated by means of the erythrosine reagent. The concentration of eutypine inducing a percentage of dead cells of 50% is determined in the wildtype strain and in the transformed varieties.

[4] = test system: transformed (GA, GB, GC, GD) grapevine cells; experiment: as above; format: cell-based, Vitis vinifera cv Gamay
Method: as §2

grapevine cells [5] = experiment: Penetration of eutypine into grapevine cells; format: cell-based
Source text: The investigation of the mode of action of eutypine in the grapevine cells was made possible owing to the availability of eutypine in the unlabelled form and in the radioactive form, labelled with carbon 14.
This toxic molecule then accumulates in the cytoplasm by an acid trapping mechanism and, owing to its lipophilic character, inserts itself into the lipids of the membranes.

[6] = test system: untransformed (UBWT) calluses of Vitis vinifera cv Ugni blanc; experiment: Biotest II: development of calluses in the presence of eutypine; format: cell-based
Method: (§3) The transformation experiments were also performed on calluses of Vitis vinifera cv Ugni blanc by making use of the same experimental protocol as that used for the transformation of the calluses of Vitis vinifera cv. Gamay.
(§4) The analysis of the behaviour of the calluses of Vitis vinifera cv Ugni blanc towards eutypine was performed by using biotest II.

[7] = test system: transformed (UBT) calluses of Vitis vinifera cv Ugni blanc; experiment: as above; format: cell-based
Method: as §3, §4

[8] = test system: protoplasts obtained from grapevine leaves; experiment: Tolerance of leaf protoplasts to eutypine; format: cell-based; conditions: Cabernet Sauvignon protoplasts compared with Merlot protoplasts
Source text: the eutypine applied to simplified biological systems causes more serious symptoms in the varieties sensitive to eutypa dieback than in varieties of grapevines tolerant to this disease.

grapevine vitroplants = experiment: Application of eutypine to grapevine vitroplants; format: in vivo
[9] = test system: untransformed calluses (GWT); experiment: Biotest II: growth of calluses on media containing eutypine; conditions: 500 μM of eutypine; wildtype calluses
mitochondria = experiment: Decoupling of oxidative phosphorylation in mitochondria; format: biochemical
Method: The mode of action of eutypine was confirmed by investigating its effects on the functioning of mitochondria. Eutypine acts as a decoupling agent of oxidative phosphorylation. The complete decoupling of the mitochondria is attained at concentrations of eutypine close to 150 μM.

[10] = Viability of leaf protoplasts cultured with eutypine or eutypinol; format: cell-based, Vitis vinifera; conditions: Vitis vinifera, protoplasts 4.5×10^5/ml, 48 hours, read-out: Viability after 48 hours
Method: as §1

[11] = test system: protoplasts of Cabernet Sauvignon; experiment: Degradation of eutypine by protoplasts (detoxification activity); format: in vitro ADME, Vitis vinifera; conditions: Cabernet Sauvignon (sensitive); eutypine 100 μM, 1 hour, 30° C.
Method: (§5) The protoplasts (10^6/ml) obtained from leaves of vitroplants are incubated for 1 hour at 30° C. in the presence of eutypine (100 μM; 0.4 kBq). Then, the phenylacetylenic compounds are extracted, separated by thin layer chromatography and the metabolic rate of eutypine is calculated after determination of the radioactivity associated with eutypine and eutypinol.

[12] = test system: protoplasts of Ugni blanc; experiment: as above; format: in vitro ADME, Vitis vinifera; conditions: Ugni blanc (very sensitive); eutypine 100 μM, 1 hour, 30° C.
Method: as §5

protoplasts of Merlot = experiment: as above; format: in vitro ADME, Vitis vinifera; conditions: Merlot (tolerant); eutypine 100 μM, 1 hour, 30° C.
Method: as §5

[13] = test system: transformed calluses (GA); experiment: Biotest II: growth of calluses on media containing eutypine; conditions: 500 μM of eutypine; GA variety
grapevine cells [14] = experiment: Consumption of oxygen of grapevine cells; format: cell-based; conditions: activation at low dose
Method: Eutypine affects the functioning of the membrane systems of the grapevine cells. It causes the acidification of the cytoplasm, the reduction of leucine transport, the activation at low dose of the consumption of oxygen and its inhibition above 160 μM, and a diminution of the energy load of the cells.

[15] = Reduction of eutypine by lysate of E. coli overexpressing the VRER protein; format: biochemical, Vigna radiata; conditions: NADPH, radioactive eutypine, thin layer chromatography
Source text: For that, the complementary DNA of the VRER gene was cloned in an expression vector, then transferred into the bacteria. The lysate of these bacteria which overexpress the protein corresponding to the VRER gene uses the co-factor NADPH to reduce eutypine.

## CCCCCC=O [hexanal]
[1]
  reduction by the ER protein: reduced

## O=Cc1ccccc1 [benzaldehyde]
[1]
  reduction by the ER protein: reduced

## C=C(C)C#Cc1cc(CO)ccc1O [Eutypinol, 4-hydroxy-3-(3-methylbut-3-en-1-ynyl) benzylic alcohol]
[2]; 200 μM
  Viability after 48 hours: 86
[2]; 500 μM
  Viability after 48 hours: 83
[2]; even at high concentrations
  toxicity to the grapevine: does not show toxicity

## CCCCCCCCCC=O [decylaldehyde]
[1]
  reduction by the ER protein: reduced

## O=Cc1ccncc1 [4-pyridine carbaldehyde]
[1]
  reduction by the ER protein: reduced

## O=C(O)c1cc[c]([Hg][OH])cc1 [parahydroxymercuribenzoic acid]
Eutypine reductase
  activity of eutypine reductase in the presence of reductase inhibitor: reduced

## 2-fluoraldehyde
[1]
  reduction by the ER protein: reduced

## C=C(C)C#Cc1cc(C=O)ccc1O [Eutypine, 4-hydroxy-3-(3-methylbut-3-en-1-ynyl) benzaldehyde]
[3]
  LD50 (eutypine concentration causing the mortality of 50%): 100 µM
[4]; GA transformed cells in suspension
  LD50 (eutypine concentration causing the mortality of 50%): 255 µM
[4]; GB transformed cells in suspension
  LD50 (eutypine concentration causing the mortality of 50%): 250 µM
[4]; GC transformed cells in suspension
  LD50 (eutypine concentration causing the mortality of 50%): 230 µM
[4]; GD transformed cells in suspension
  LD50 (eutypine concentration causing the mortality of 50%): 225 µM
Grapevine cells [5]
  penetration into the grapevine cells: passive diffusion
[6]; 500 μM of eutypine, UBWT
  Mean mass of a callus: 25 mg
[6]; 500 μM, wildtype variety
  development of calluses: necrose rapidly and do not develop
[7]; 500 μM of eutypine, UBT
  Mean mass of a callus: 150 mg
[7]; 500 μM, transformed UB variety
  growth of the calluses: practically unaffected
[8]
  tolerance of protoplasts to eutypine: lower tolerance
Grapevine vitroplants; applied to grapevine vitroplants
  symptoms of the disease: reproduces certain symptoms of the disease
Grapevine vitroplants; leaves of vitroplants
  ultrastructural alterations in the leaves: induces ultrastructural alterations
[9]
  development of calluses: do not develop
mitochondria
  concentration for complete decoupling of the mitochondria: ~150 µM
[10]; 100 μM
  viability at 48 h, 100 µM: 67%
[10]; 200 μM
  viability at 48 h, 200 µM: 0%
[11]
  Detoxification activity: 10.1 pmol/min/10^5 cells
[12]
  Detoxification activity: 7.9 pmol/min/10^5 cells
Protoplasts of Merlot
  Detoxification activity: 13.6 pmol/min/10^5 cells
[13]
  development of calluses: does not exhibit necroses
Grapevine cells [14]
  concentration for inhibition of the consumption of oxygen: above 160 μM

B1: protein corresponding to the VRER gene: polypeptide of 325 amino acids from Vigna radiata with eutypine reductase activity, SEQ ID NO. 4 (protein)
chain: T1 sequence (Q9SQK0 1-325)
[15]
  eutypine reductase activity: exhibits a “eutypine reductase” activity in vitro

From US6376212B1, “Polypeptide compounds and nucleotide sequences promoting resistance to eutypa dieback in plants” (Societe des Domaines Viticoles Martell, priority 1997, dated 2002)
